Assay results as given in US20250255867A1 (Kadmon Corporation, LLC, priority 2022, published 2025).

CC(C)NC(=O)COc1cccc(-c2nc(Nc3ccc4[nH]ncc4c3)c3ccccc3n2)c1 [Belumosudil, 2-{3-[4-(1H-indazol-5-ylamino)-2-quinazolinyl]phenoxy}-N-(propan-2-yl) acetamide]
77%: Patients with relative dose intensity >95% (Cohort 1)
14: Anaemia: # Events (Cohort 1 200 mg QD)
12: Alanine aminotransferase increased: # Events (Cohort 1 200 mg QD)
1/17: Abdominal distension: Affected/At Risk (Cohort 1 200 mg QD) | Abdominal pain upper: Affected/At Risk (Cohort 1 200 mg QD) | Acute kidney injury: Affected/At Risk (Cohort 1 200 mg QD) | Acute respiratory distress syndrome: Affected/At Risk (Cohort 1 200 mg QD) | Adrenal insufficiency: Affected/At Risk (Cohort 1 200 mg QD) | Anal incontinence: Affected/At Risk (Cohort 1 200 mg QD) | Anxiety: Affected/At Risk (Cohort 1 200 mg QD) | Arthralgia: Affected/At Risk (Cohort 1 200 mg QD) | Atelectasis: Affected/At Risk (Cohort 1 200 mg QD) | Benign prostatic hyperplasia: Affected/At Risk (Cohort 1 200 mg QD) | Blepharitis: Affected/At Risk (Cohort 1 200 mg QD) | Blood cholesterol increased: Affected/At Risk (Cohort 1 200 mg QD) | Blood creatine phosphokinase increased: Affected/At Risk (Cohort 1 200 mg QD) | Blood creatinine increased: Affected/At Risk (Cohort 1 200 mg QD) | Blood loss anaemia: Affected/At Risk (Cohort 1 200 mg QD) | Bronchitis: Affected/At Risk (Cohort 1 200 mg QD) | Bronchoscopy: Affected/At Risk (Cohort 1 200 mg QD) | Catheter site haemorrhage: Affected/At Risk (Cohort 1 200 mg QD) | Chills: Affected/At Risk (Cohort 1 200 mg QD) | Chronic kidney disease: Affected/At Risk (Cohort 1 200 mg QD) | Constipation: Affected/At Risk (Cohort 1 200 mg QD) | Corneal abrasion: Affected/At Risk (Cohort 1 200 mg QD) | Cough: Affected/At Risk (Cohort 1 200 mg QD)
4/17: Blood alkaline phosphatase increased: Affected/At Risk (Cohort 1 200 mg QD)
(35.29%): Alanine aminotransferase increased: Affected/At Risk (%) (Cohort 1 200 mg QD)
6: Blood alkaline phosphatase increased: # Events (Cohort 1 200 mg QD)
9: Diarrhoea: # Events (Cohort 1 200 mg QD)
2: Abdominal pain: # Events (Cohort 1 200 mg QD) | Adrenal insufficiency: # Events (Cohort 1 200 mg QD) | Anal incontinence: # Events (Cohort 1 200 mg QD) | Blood cholesterol increased: # Events (Cohort 1 200 mg QD) | Contusion: # Events (Cohort 1 200 mg QD) | Dehydration: # Events (Cohort 1 200 mg QD)
(5.88%): Abdominal distension: Affected/At Risk (%) (Cohort 1 200 mg QD) | Abdominal pain upper: Affected/At Risk (%) (Cohort 1 200 mg QD) | Acute kidney injury: Affected/At Risk (%) (Cohort 1 200 mg QD) | Acute respiratory distress syndrome: Affected/At Risk (%) (Cohort 1 200 mg QD) | Adrenal insufficiency: Affected/At Risk (%) (Cohort 1 200 mg QD) | Anal incontinence: Affected/At Risk (%) (Cohort 1 200 mg QD) | Anxiety: Affected/At Risk (%) (Cohort 1 200 mg QD) | Arthralgia: Affected/At Risk (%) (Cohort 1 200 mg QD) | Atelectasis: Affected/At Risk (%) (Cohort 1 200 mg QD) | Benign prostatic hyperplasia: Affected/At Risk (%) (Cohort 1 200 mg QD) | Blepharitis: Affected/At Risk (%) (Cohort 1 200 mg QD) | Blood cholesterol increased: Affected/At Risk (%) (Cohort 1 200 mg QD) | Blood creatine phosphokinase increased: Affected/At Risk (%) (Cohort 1 200 mg QD) | Blood creatinine increased: Affected/At Risk (%) (Cohort 1 200 mg QD) | Blood loss anaemia: Affected/At Risk (%) (Cohort 1 200 mg QD) | Bronchitis: Affected/At Risk (%) (Cohort 1 200 mg QD) | Bronchoscopy: Affected/At Risk (%) (Cohort 1 200 mg QD) | Catheter site haemorrhage: Affected/At Risk (%) (Cohort 1 200 mg QD) | Chills: Affected/At Risk (%) (Cohort 1 200 mg QD) | Chronic kidney disease: Affected/At Risk (%) (Cohort 1 200 mg QD) | Constipation: Affected/At Risk (%) (Cohort 1 200 mg QD) | Corneal abrasion: Affected/At Risk (%) (Cohort 1 200 mg QD) | Cough: Affected/At Risk (%) (Cohort 1 200 mg QD)
(0%): Actinic keratosis: Affected/At Risk (%) (Cohort 1 200 mg QD) | Asthenia: Affected/At Risk (%) (Cohort 1 200 mg QD) | Back pain: Affected/At Risk (%) (Cohort 1 200 mg QD) | Balance disorder: Affected/At Risk (%) (Cohort 1 200 mg QD) | Basal cell carcinoma: Affected/At Risk (%) (Cohort 1 200 mg QD) | Blister: Affected/At Risk (%) (Cohort 1 200 mg QD) | Blood chloride decreased: Affected/At Risk (%) (Cohort 1 200 mg QD) | Blood creatine increased: Affected/At Risk (%) (Cohort 1 200 mg QD) | Bronchial secretion retention: Affected/At Risk (%) (Cohort 1 200 mg QD) | Conjunctival haemorrhage: Affected/At Risk (%) (Cohort 1 200 mg QD) | Conjunctivitis: Affected/At Risk (%) (Cohort 1 200 mg QD) | Contrast media allergy: Affected/At Risk (%) (Cohort 1 200 mg QD) | Corneal infection: Affected/At Risk (%) (Cohort 1 200 mg QD) | Depression: Affected/At Risk (%) (Cohort 1 200 mg QD)
0: Actinic keratosis: # Events (Cohort 1 200 mg QD) | Asthenia: # Events (Cohort 1 200 mg QD) | Back pain: # Events (Cohort 1 200 mg QD) | Balance disorder: # Events (Cohort 1 200 mg QD) | Basal cell carcinoma: # Events (Cohort 1 200 mg QD) | Blister: # Events (Cohort 1 200 mg QD) | Blood chloride decreased: # Events (Cohort 1 200 mg QD) | Blood creatine increased: # Events (Cohort 1 200 mg QD) | Bronchial secretion retention: # Events (Cohort 1 200 mg QD) | Conjunctival haemorrhage: # Events (Cohort 1 200 mg QD) | Conjunctivitis: # Events (Cohort 1 200 mg QD) | Contrast media allergy: # Events (Cohort 1 200 mg QD) | Corneal infection: # Events (Cohort 1 200 mg QD) | Depression: # Events (Cohort 1 200 mg QD)
6/17: Alanine aminotransferase increased: Affected/At Risk (Cohort 1 200 mg QD)
4: Acute kidney injury: # Events (Cohort 1 200 mg QD) | Decreased appetite: # Events (Cohort 1 200 mg QD)
2/17: Abdominal pain: Affected/At Risk (Cohort 1 200 mg QD) | Contusion: Affected/At Risk (Cohort 1 200 mg QD) | Decreased appetite: Affected/At Risk (Cohort 1 200 mg QD) | Dehydration: Affected/At Risk (Cohort 1 200 mg QD)
5/17: Anaemia: Affected/At Risk (Cohort 1 200 mg QD) | Aspartate aminotransferase increased: Affected/At Risk (Cohort 1 200 mg QD)
(11.76%): Abdominal pain: Affected/At Risk (%) (Cohort 1 200 mg QD) | Contusion: Affected/At Risk (%) (Cohort 1 200 mg QD) | Decreased appetite: Affected/At Risk (%) (Cohort 1 200 mg QD) | Dehydration: Affected/At Risk (%) (Cohort 1 200 mg QD)
(23.53%): Blood alkaline phosphatase increased: Affected/At Risk (%) (Cohort 1 200 mg QD)
1: Abdominal distension: # Events (Cohort 1 200 mg QD) | Abdominal pain upper: # Events (Cohort 1 200 mg QD) | Acute respiratory distress syndrome: # Events (Cohort 1 200 mg QD) | Anxiety: # Events (Cohort 1 200 mg QD) | Arthralgia: # Events (Cohort 1 200 mg QD) | Atelectasis: # Events (Cohort 1 200 mg QD) | Benign prostatic hyperplasia: # Events (Cohort 1 200 mg QD) | Blepharitis: # Events (Cohort 1 200 mg QD) | Blood creatine phosphokinase increased: # Events (Cohort 1 200 mg QD) | Blood creatinine increased: # Events (Cohort 1 200 mg QD) | Blood loss anaemia: # Events (Cohort 1 200 mg QD) | Bronchitis: # Events (Cohort 1 200 mg QD) | Bronchoscopy: # Events (Cohort 1 200 mg QD) | Catheter site haemorrhage: # Events (Cohort 1 200 mg QD) | Chills: # Events (Cohort 1 200 mg QD) | Chronic kidney disease: # Events (Cohort 1 200 mg QD) | Constipation: # Events (Cohort 1 200 mg QD) | Corneal abrasion: # Events (Cohort 1 200 mg QD) | Cough: # Events (Cohort 1 200 mg QD)
8: Aspartate aminotransferase increased: # Events (Cohort 1 200 mg QD)
0/17: Actinic keratosis: Affected/At Risk (Cohort 1 200 mg QD) | Asthenia: Affected/At Risk (Cohort 1 200 mg QD) | Back pain: Affected/At Risk (Cohort 1 200 mg QD) | Balance disorder: Affected/At Risk (Cohort 1 200 mg QD) | Basal cell carcinoma: Affected/At Risk (Cohort 1 200 mg QD) | Blister: Affected/At Risk (Cohort 1 200 mg QD) | Blood chloride decreased: Affected/At Risk (Cohort 1 200 mg QD) | Blood creatine increased: Affected/At Risk (Cohort 1 200 mg QD) | Bronchial secretion retention: Affected/At Risk (Cohort 1 200 mg QD) | Conjunctival haemorrhage: Affected/At Risk (Cohort 1 200 mg QD) | Conjunctivitis: Affected/At Risk (Cohort 1 200 mg QD) | Contrast media allergy: Affected/At Risk (Cohort 1 200 mg QD) | Corneal infection: Affected/At Risk (Cohort 1 200 mg QD) | Depression: Affected/At Risk (Cohort 1 200 mg QD)
(29.41%): Anaemia: Affected/At Risk (%) (Cohort 1 200 mg QD) | Aspartate aminotransferase increased: Affected/At Risk (%) (Cohort 1 200 mg QD)
